The results in this text go back to a melting point compilation (Tetko et al.; mined from patent text by program, amines drawn as free bases though some values may be those of a salt).

Bounds are passed on as bounds.

By melting point is commonly meant the temperature of the solid-liquid transition. For `Cc1ncc([N+](=O)[O-])cc1C(=O)NCCO`, the melting point was 144 to 145 °C.

Consider `Cc1c(N)c([N+](=O)[O-])cc2c(=O)c(C(=O)O)cn(-c3cc(N)c(F)cc3F)c12`, for which the melting point is greater than 280 °C.

Take `CCNC(=O)Nc1cc(F)cc2c1OCCC21SC(=O)NC1=O` (stereo unspecified): the melting point is 197 to 199 °C.

Turning to `NC/C=C/COc1ccc(-n2ccnc2)cc1`, the melting point is 81 to 83 °C.

Molecule `CC(=O)NNc1ccc(NC(=S)Nc2ccc(NNC(C)=O)cc2)cc1` showed a melting point of 234 to 236 °C.

As to `O=C1C2C3CCC(C3)C2C(=O)C1[N+](=O)[O-]` (stereo unspecified), the melting point worked out at 167 °C.

Regarding `COC(=O)[C@]1(C)CCc2c(C)c(OCc3ccccc3)c(C)c(C)c2O1`, the melting point fell in the range of 102 to 106 °C.

Turning to `COC(=O)CCC(=O)c1ccc(C)cc1OCC1CO1` (stereo unspecified), the melting point fell in the range of 61.5 to 63 °C.

`CCCn1c(=O)c2cc(C(=O)OCC)cn2c2ccccc21` came in with a melting point of 143 to 144 °C.

Molecule `CNC(=O)C(=O)CCCCCCc1csc(-c2ccc(Cl)cc2)n1` returned a melting point of 77 to 81 °C.

In turn, `COc1ccc(N2CCOP(=O)(Oc3ccccc3)OCC2)cc1` gave a melting point of 124 to 126 °C.

Turning to `OC(c1ccccc1)c1cc2ccncc2[nH]1` (stereo unspecified), the melting point lay within 178 to 180 °C.

`CC(=O)C1=CCC2C3CCC4CC(O)CCC4(C)C3C(=O)CC12C` (stereo unspecified) displayed a melting point of 218 °C.

Consider `NC(=O)CC[C@H]1CC[C@@H](c2ccc(F)cc2)N1S(=O)(=O)c1ccc(Cl)cc1` (racemic), for which the melting point amounted to 114 °C.

In the case of `Cc1nn(-c2cc(OC(C)C(=O)NS(=O)(=O)c3cccc4c3OC(C)(C)C4)c(Cl)cc2F)c(=O)n1C(F)F` (stereo unspecified), the melting point lay within 198 to 201 °C.

`COc1ccc(COC(=O)c2cc([N+](=O)[O-])c3ccccc3c2O)cc1` registered a melting point of 163 to 164 °C.

On to `CCCN(CCC)C1CCc2c(ccc3c2C(=O)C(=O)N3)C1` (stereo unspecified), for which the melting point fell in the range of 83 to 86 °C.

`CCCCCCCCC1=C(Cl)C(=O)c2ccccc2C1=O` came in with a melting point of 69 to 70 °C.

The molecule `CSC(=S)NCCCN1CCN(c2ccccc2)CC1` registered a melting point of 75 to 79 °C.

Molecule `O=c1[nH]ncc2cc(Cl)ccc12` gave a melting point of 272 to 273 °C.

`C1=C(CCc2c[nH]c3ccccc23)CCNC1` returned a melting point of 155 °C.

Molecule `CC(=O)Oc1ccccc1C(=O)Nc1nc(S(C)=O)cs1` (stereo unspecified) showed a melting point of 167 to 169 °C.

In turn, `COC(=O)CCCOc1cc([N+](=O)[O-])c(COc2ccccc2)cc1OC` had a melting point of 96 to 98 °C.

Take `CN1CCN(c2cc3nc(C(C)(C)C)sc3cc2[N+](=O)[O-])CC1`: the melting point is 132 to 135 °C.

Turning to `Nc1ccc(CC2CCN(S(=O)(=O)c3ccccc3)CC2)cc1`, the melting point is 158 °C.

Take `Cc1ncoc1C(=O)c1ccccc1`: the melting point was in the range of 84 to 86 °C.

With `COc1cccc(OC)c1NC(=O)c1ccc2nc(N[C@@H]3CCc4ccccc43)ccc2c1`, the melting point was 199 °C.

`Cc1cc(-n2nc(C(F)F)cc2-c2ccc(S(C)(=O)=O)cc2)ccc1Br` registered a melting point of 141 to 142 °C.

`O=C(O)Cn1c(=O)n(Cc2ccccc2)c2ccccc21` showed a melting point of 200 to 202 °C.

`COc1cc(C)c(C(=O)c2c(OC)ccc(C(F)(F)F)c2C)c(OC)c1OC` yielded a melting point of 95 to 96 °C.

With `NNC(=O)CSc1nc(Cl)cc(NCc2ccc(Cl)cc2)n1`, the melting point lay in the range of 178 to 182 °C.

Regarding `COOc1ccc(S(=O)(=O)c2cnc(C)nc2Cc2c(C)cc(C)cc2C)cc1`, the melting point lay within 150 to 152 °C.

`CC1(C)C=Cc2c(-c3[nH]c4cn[nH]c(=O)c4c3Cl)ccc(OC(F)F)c2O1` registered a melting point of 226 to 234 °C.

In turn, `CCCCCCCCCCCCc1ccc(S(=O)(=O)Nc2nnc(CCCCCN(C)c3ccc([N+](=O)[O-])c4nonc34)s2)cc1` yielded a melting point of 102 to 104 °C.

Turning to `CC1([N+](=O)[O-])C(c2ccco2)CC(=C(C#N)C#N)CC1c1ccco1` (stereo unspecified), the melting point was found to be 192 °C.

As for `Cc1ccc(-c2ccc(Sc3ccccc3)s2)cc1C`, the melting point lay in the range of 77 to 78 °C.
